# Experimental data from patent US20100279990A1, “ANTIPROLIFERATIVE COMPOUNDS, COMPOSITIONS AND METHODS OF USE” (RAMOT AT TEL-AVIV UNIVERSITY LTD., priority 2006, published 2010).
# Legend:
# PRXF 22RV1 = assay: Monolayer Assay, PI: PRXF 22RV1 (Prostate); format: cell-based, human
# Source text: (§1) This example illustrates cell proliferation data in the form of IC50, IC70 and IC90 values obtained by exposure of human cancer cell-lines to compound (Ia). […].
# MEXF 462NL = assay: Monolayer Assay, PI: MEXF 462NL (Melanoma); format: cell-based, human
# Source text: as §1
# [1] = system: Caspase 3 activity in human Jurkat lymphoma cells; assay: Caspase 3 activity in human Jurkat lymphoma cell-line, fluorimetric Ac-DEVD-AMC; format: cell-based; settings: 4 hr after exposure, compared to vehicle treated cells
# Protocol: This example illustrates Caspase 3 activity data obtained by administering compound (Ia) to a human Jurkat lymphoma cell-line. The results are depicted FIG. 8A. Each point is the mean of 2 determinations.
# Caspase 3 activity was measured by an enzymatic fluorimetric method using a fluorigenic substrate (Ac-DEVD-AMC), which produces blue fluorescence detected at 360 nm wavelength. See Garcia-Calvo et al., J Biol Chem, 273(49), 32608-13 (1998). When AMC is cleaved from the substrate by caspase-3, and caspase-3-like enzymes, it produces a yellow-green fluorescence, which can be monitored by a fluorimeter at 460 nm. The amount of yellow green fluorescence is proportional to the activity of caspase-3 in the cell extract sample.
# The human Jurkat lymphoma cell-line, as used in FIG. 8A, and the human MDR colon cancer LS1034 lysates, as used in FIG. 8B, were prepared by Triton X-100 extraction 4 hr after exposure to the applicable compound (10 or 20 μM) or the vehicle. Whole cell lysate was added to a buffer containing 100 μM peptide substrate, 100 mM HEPES, 10% glycerol, 1 mM EDTA and 10 mM dithiothreitol. Measurements were taken every 5 min for 80 min. These experiments were also monitored in the presence of a specific caspase-3 inhibitor, DEVD-AMC-CHO, which was added after 45 or 60 min to the reaction mixture, to ascertain the specificity of the enzyme.
# MEXF 514L = assay: Monolayer Assay, PI: MEXF 514L (Melanoma); format: cell-based, human
# Source text: as §1
# RXF 486L = assay: Monolayer Assay, PI: RXF 486L (Renal); format: cell-based, human
# Source text: as §1
# Jurkat Lymphoma cells = assay: Viability of Jurkat Lymphoma cells, combination with Doxorubicin; format: cell-based; settings: Homo sapiens, read-out: inhibition of cell viability
# BXF T24 = assay: Monolayer Assay, PI: BXF T24 (Bladder); format: cell-based, human
# Source text: as §1
# CNXF 498NL = assay: Monolayer Assay, PI: CNXF 498NL; format: cell-based, human
# Source text: as §1
# CXF HCT116 = assay: Monolayer Assay, PI: CXF HCT116 (Colorectal); format: cell-based, human
# Source text: as §1
# CNXF SF268 = assay: Monolayer Assay, PI: CNXF SF268; format: cell-based, human
# Source text: as §1
# LXF 1121L = assay: Monolayer Assay, PI: LXF 1121L (Lung); format: cell-based, human
# Source text: as §1
# PRXF PC3M = assay: Monolayer Assay, PI: PRXF PC3M (Prostate); format: cell-based, human
# Source text: as §1
compound,measurement,setting,value
"CN[C@H]1CC[C@@H](c2ccc(Cl)c(Cl)c2)c2ccc(C#CCCCO)cc21 [compound (Ia), (1S-cis)-4-(3,4-dichlorophenyl)-7-(5-hydroxy-1-pentyn-1-yl)-1,2,3,4-tetrahydro-N-methyl-1-naphthalenamine hydroiodide]",Test/Control (%),PRXF 22RV1; 2.3 μg/ml,80%
same,Test/Control activity class,PRXF 22RV1; 2.3 μg/ml,− (− (T/C = 50))
same,Test/Control (%),PRXF 22RV1; 7.5 μg/ml,24%
same,Test/Control activity class,PRXF 22RV1; 7.5 μg/ml,++ (++ (10 <= T/C < 30))
same,Test/Control (%),PRXF 22RV1; 23. μg/ml,2%
same,Test/Control activity class,PRXF 22RV1; 23. μg/ml,+++ (+++ (T/C < 10))
same,Test/Control (%),PRXF 22RV1; 75. μg/ml,2%
same,Test/Control activity class,PRXF 22RV1; 75. μg/ml,+++ (+++ (T/C < 10))
same,Test/Control (%),PRXF 22RV1; .75 μg/ml,85%
same,Test/Control activity class,PRXF 22RV1; .75 μg/ml,− (− (T/C = 50))
same,Test/Control (%),MEXF 462NL; 2.3 μg/ml,107%
same,Test/Control activity class,MEXF 462NL; 2.3 μg/ml,− (− (T/C = 50))
same,Test/Control (%),MEXF 462NL; 7.5 μg/ml,20%
same,Test/Control activity class,MEXF 462NL; 7.5 μg/ml,++ (++ (10 <= T/C < 30))
same,Test/Control (%),MEXF 462NL; 23. μg/ml,2%
same,Test/Control activity class,MEXF 462NL; 23. μg/ml,+++ (+++ (T/C < 10))
same,Test/Control (%),MEXF 462NL; 75. μg/ml,2%
same,Test/Control activity class,MEXF 462NL; 75. μg/ml,+++ (+++ (T/C < 10))
same,Test/Control (%),MEXF 462NL; .75 μg/ml,102%
same,Test/Control activity class,MEXF 462NL; .75 μg/ml,− (− (T/C = 50))
same,Caspase 3 activity,[1],increase in the activity of the caspase-3
same,Test/Control (%),MEXF 514L; 2.3 μg/ml,90%
same,Test/Control activity class,MEXF 514L; 2.3 μg/ml,− (− (T/C = 50))
same,Test/Control (%),MEXF 514L; 7.5 μg/ml,3%
same,Test/Control activity class,MEXF 514L; 7.5 μg/ml,+++ (+++ (T/C < 10))
same,Test/Control (%),MEXF 514L; 23. μg/ml,2%
same,Test/Control activity class,MEXF 514L; 23. μg/ml,+++ (+++ (T/C < 10))
same,Test/Control (%),MEXF 514L; 75. μg/ml,3%
same,Test/Control activity class,MEXF 514L; 75. μg/ml,+++ (+++ (T/C < 10))
same,Test/Control (%),MEXF 514L; .75 μg/ml,108%
same,Test/Control activity class,MEXF 514L; .75 μg/ml,− (− (T/C = 50))
same,Test/Control (%),RXF 486L; 2.3 μg/ml,103%
same,Test/Control activity class,RXF 486L; 2.3 μg/ml,− (− (T/C = 50))
same,Test/Control (%),RXF 486L; 7.5 μg/ml,81%
same,Test/Control activity class,RXF 486L; 7.5 μg/ml,− (− (T/C = 50))
same,Test/Control (%),RXF 486L; 23. μg/ml,9%
same,Test/Control activity class,RXF 486L; 23. μg/ml,+++ (+++ (T/C < 10))
same,Test/Control (%),RXF 486L; 75. μg/ml,5%
same,Test/Control activity class,RXF 486L; 75. μg/ml,+++ (+++ (T/C < 10))
same,Test/Control (%),RXF 486L; .75 μg/ml,102%
same,Test/Control activity class,RXF 486L; .75 μg/ml,− (− (T/C = 50))
same,cytotoxicity at 5 µM,Jurkat Lymphoma cells; 5 μM alone,18%
same,cytotoxicity at 10 µM,Jurkat Lymphoma cells; 10 μM alone,59.5%
same,Test/Control (%),BXF T24; 2.3 μg/ml,93%
same,Test/Control activity class,BXF T24; 2.3 μg/ml,− (− (T/C = 50))
same,Test/Control (%),BXF T24; 7.5 μg/ml,53%
same,Test/Control activity class,BXF T24; 7.5 μg/ml,− (− (T/C = 50))
same,Test/Control (%),BXF T24; 23. μg/ml,2%
same,Test/Control activity class,BXF T24; 23. μg/ml,+++ (+++ (T/C < 10))
same,Test/Control (%),BXF T24; 75. μg/ml,2%
same,Test/Control activity class,BXF T24; 75. μg/ml,+++ (+++ (T/C < 10))
same,Test/Control (%),BXF T24; .75 μg/ml,88%
same,Test/Control activity class,BXF T24; .75 μg/ml,− (− (T/C = 50))
same,Test/Control (%),CNXF 498NL; 2.3 μg/ml,101%
same,Test/Control activity class,CNXF 498NL; 2.3 μg/ml,− (− (T/C = 50))
same,Test/Control (%),CNXF 498NL; 7.5 μg/ml,5%
same,Test/Control activity class,CNXF 498NL; 7.5 μg/ml,+++ (+++ (T/C < 10))
same,Test/Control (%),CNXF 498NL; 23. μg/ml,3%
same,Test/Control activity class,CNXF 498NL; 23. μg/ml,+++ (+++ (T/C < 10))
same,Test/Control (%),CNXF 498NL; 75. μg/ml,1%
same,Test/Control activity class,CNXF 498NL; 75. μg/ml,+++ (+++ (T/C < 10))
same,Test/Control (%),CNXF 498NL; .75 μg/ml,97%
same,Test/Control activity class,CNXF 498NL; .75 μg/ml,− (− (T/C = 50))
same,Test/Control (%),CXF HCT116; 2.3 μg/ml,93%
same,Test/Control activity class,CXF HCT116; 2.3 μg/ml,− (− (T/C = 50))
same,Test/Control (%),CXF HCT116; 7.5 μg/ml,4%
same,Test/Control activity class,CXF HCT116; 7.5 μg/ml,+++ (+++ (T/C < 10))
same,Test/Control (%),CXF HCT116; 23. μg/ml,2%
same,Test/Control activity class,CXF HCT116; 23. μg/ml,+++ (+++ (T/C < 10))
same,Test/Control (%),CXF HCT116; 75. μg/ml,1%
same,Test/Control activity class,CXF HCT116; 75. μg/ml,+++ (+++ (T/C < 10))
same,Test/Control (%),CXF HCT116; .75 μg/ml,99%
same,Test/Control activity class,CXF HCT116; .75 μg/ml,− (− (T/C = 50))
same,Test/Control (%),CNXF SF268; 2.3 μg/ml,70%
same,Test/Control activity class,CNXF SF268; 2.3 μg/ml,− (− (T/C = 50))
same,Test/Control (%),CNXF SF268; 7.5 μg/ml,5%
same,Test/Control activity class,CNXF SF268; 7.5 μg/ml,+++ (+++ (T/C < 10))
same,Test/Control (%),CNXF SF268; 23. μg/ml,4%
same,Test/Control activity class,CNXF SF268; 23. μg/ml,+++ (+++ (T/C < 10))
same,Test/Control (%),CNXF SF268; 75. μg/ml,3%
same,Test/Control activity class,CNXF SF268; 75. μg/ml,+++ (+++ (T/C < 10))
same,Test/Control (%),CNXF SF268; .75 μg/ml,91%
same,Test/Control activity class,CNXF SF268; .75 μg/ml,− (− (T/C = 50))
same,Test/Control (%),LXF 1121L; 2.3 μg/ml,104%
same,Test/Control activity class,LXF 1121L; 2.3 μg/ml,− (− (T/C = 50))
same,Test/Control (%),LXF 1121L; 7.5 μg/ml,72%
same,Test/Control activity class,LXF 1121L; 7.5 μg/ml,− (− (T/C = 50))
same,Test/Control (%),LXF 1121L; 23. μg/ml,2%
same,Test/Control activity class,LXF 1121L; 23. μg/ml,+++ (+++ (T/C < 10))
same,Test/Control (%),LXF 1121L; 75. μg/ml,1%
same,Test/Control activity class,LXF 1121L; 75. μg/ml,+++ (+++ (T/C < 10))
same,Test/Control (%),LXF 1121L; .75 μg/ml,103%
same,Test/Control activity class,LXF 1121L; .75 μg/ml,− (− (T/C = 50))
same,Test/Control (%),PRXF PC3M; 2.3 μg/ml,91%
same,Test/Control activity class,PRXF PC3M; 2.3 μg/ml,− (− (T/C = 50))
same,Test/Control (%),PRXF PC3M; 7.5 μg/ml,4%
same,Test/Control activity class,PRXF PC3M; 7.5 μg/ml,+++ (+++ (T/C < 10))
same,Test/Control (%),PRXF PC3M; 23. μg/ml,1%
same,Test/Control activity class,PRXF PC3M; 23. μg/ml,+++ (+++ (T/C < 10))
same,Test/Control (%),PRXF PC3M; 75. μg/ml,1%
same,Test/Control activity class,PRXF PC3M; 75. μg/ml,+++ (+++ (T/C < 10))
same,Test/Control (%),PRXF PC3M; .75 μg/ml,95%
same,Test/Control activity class,PRXF PC3M; .75 μg/ml,− (− (T/C = 50))
